Data on six molecules can be found in ChEMBL document CHEMBL1201862, “PubChem BioAssay data set” (2004).

In assay [1] the test system is INS1. Description: INS-1E survival protection against cytokine death – cell-based, luminescence, retest, dose response (AID 449756).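 Note: cell death triggered by IL-1 beta plus TNF-alpha plus IFN-gamma mixture; protective hits raise ATP signal compared with cytokine alone wells.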 The format is functional. The conditions noted are these: Rattus norvegicus.
In assay [2] the target is Photoreceptor-specific nuclear receptor (Homo sapiens, UniProt Q9Y5X4). The format is functional, cell-based.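 Note: CHO-S cells with Gal4-NCOR and VP16-NR2E3 two-hybrid luciferase reporter.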
Photoreceptor-specific nuclear receptor, sequence (Q9Y5X4 whole entry, the tested form may be a part): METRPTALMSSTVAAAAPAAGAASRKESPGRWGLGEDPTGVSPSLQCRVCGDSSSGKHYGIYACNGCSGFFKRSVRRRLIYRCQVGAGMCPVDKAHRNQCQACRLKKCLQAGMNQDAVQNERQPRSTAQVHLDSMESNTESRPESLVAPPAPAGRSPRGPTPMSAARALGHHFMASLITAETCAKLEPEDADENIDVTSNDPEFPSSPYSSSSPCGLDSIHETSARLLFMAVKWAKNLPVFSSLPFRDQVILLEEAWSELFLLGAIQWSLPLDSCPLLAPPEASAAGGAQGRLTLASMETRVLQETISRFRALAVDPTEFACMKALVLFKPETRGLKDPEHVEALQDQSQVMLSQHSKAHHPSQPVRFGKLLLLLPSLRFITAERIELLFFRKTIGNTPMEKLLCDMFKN
The target of assay [3] is Genome polyprotein (dengue virus type 2, UniProt P29990). Description: flavivirus cap methylation enzyme inhibition – biochemical, confirmation dose response, primary screen (AID 588689). It is filed as functional.
Genome polyprotein, sequence (P29990 2492-3391 limits assumed): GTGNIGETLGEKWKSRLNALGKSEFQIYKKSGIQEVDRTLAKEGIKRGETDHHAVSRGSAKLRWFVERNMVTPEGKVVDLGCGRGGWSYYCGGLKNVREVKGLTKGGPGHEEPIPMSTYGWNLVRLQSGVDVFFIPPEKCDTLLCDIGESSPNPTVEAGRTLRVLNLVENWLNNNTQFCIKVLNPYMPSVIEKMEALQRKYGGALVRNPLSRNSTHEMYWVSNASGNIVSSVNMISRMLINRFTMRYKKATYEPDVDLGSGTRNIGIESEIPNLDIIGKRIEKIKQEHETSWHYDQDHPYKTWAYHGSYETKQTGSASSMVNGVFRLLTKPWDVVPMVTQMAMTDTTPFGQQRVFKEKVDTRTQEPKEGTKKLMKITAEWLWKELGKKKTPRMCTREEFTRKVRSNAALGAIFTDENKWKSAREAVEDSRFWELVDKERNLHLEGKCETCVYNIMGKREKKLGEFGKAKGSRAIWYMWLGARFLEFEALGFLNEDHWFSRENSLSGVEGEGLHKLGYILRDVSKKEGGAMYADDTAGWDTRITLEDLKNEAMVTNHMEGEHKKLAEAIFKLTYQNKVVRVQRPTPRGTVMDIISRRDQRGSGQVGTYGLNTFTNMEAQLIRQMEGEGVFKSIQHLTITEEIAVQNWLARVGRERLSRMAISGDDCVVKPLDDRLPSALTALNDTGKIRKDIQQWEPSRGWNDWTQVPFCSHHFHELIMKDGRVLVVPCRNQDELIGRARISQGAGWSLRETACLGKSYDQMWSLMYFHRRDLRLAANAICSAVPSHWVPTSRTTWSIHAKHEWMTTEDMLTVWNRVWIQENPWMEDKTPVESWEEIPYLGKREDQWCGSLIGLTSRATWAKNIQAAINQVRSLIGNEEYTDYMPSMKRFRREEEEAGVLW
In assay [4] the target is T1, Apoptotic protease-activating factor 1 (Homo sapiens, UniProt O14727).
T1 sequence (O14727 whole entry): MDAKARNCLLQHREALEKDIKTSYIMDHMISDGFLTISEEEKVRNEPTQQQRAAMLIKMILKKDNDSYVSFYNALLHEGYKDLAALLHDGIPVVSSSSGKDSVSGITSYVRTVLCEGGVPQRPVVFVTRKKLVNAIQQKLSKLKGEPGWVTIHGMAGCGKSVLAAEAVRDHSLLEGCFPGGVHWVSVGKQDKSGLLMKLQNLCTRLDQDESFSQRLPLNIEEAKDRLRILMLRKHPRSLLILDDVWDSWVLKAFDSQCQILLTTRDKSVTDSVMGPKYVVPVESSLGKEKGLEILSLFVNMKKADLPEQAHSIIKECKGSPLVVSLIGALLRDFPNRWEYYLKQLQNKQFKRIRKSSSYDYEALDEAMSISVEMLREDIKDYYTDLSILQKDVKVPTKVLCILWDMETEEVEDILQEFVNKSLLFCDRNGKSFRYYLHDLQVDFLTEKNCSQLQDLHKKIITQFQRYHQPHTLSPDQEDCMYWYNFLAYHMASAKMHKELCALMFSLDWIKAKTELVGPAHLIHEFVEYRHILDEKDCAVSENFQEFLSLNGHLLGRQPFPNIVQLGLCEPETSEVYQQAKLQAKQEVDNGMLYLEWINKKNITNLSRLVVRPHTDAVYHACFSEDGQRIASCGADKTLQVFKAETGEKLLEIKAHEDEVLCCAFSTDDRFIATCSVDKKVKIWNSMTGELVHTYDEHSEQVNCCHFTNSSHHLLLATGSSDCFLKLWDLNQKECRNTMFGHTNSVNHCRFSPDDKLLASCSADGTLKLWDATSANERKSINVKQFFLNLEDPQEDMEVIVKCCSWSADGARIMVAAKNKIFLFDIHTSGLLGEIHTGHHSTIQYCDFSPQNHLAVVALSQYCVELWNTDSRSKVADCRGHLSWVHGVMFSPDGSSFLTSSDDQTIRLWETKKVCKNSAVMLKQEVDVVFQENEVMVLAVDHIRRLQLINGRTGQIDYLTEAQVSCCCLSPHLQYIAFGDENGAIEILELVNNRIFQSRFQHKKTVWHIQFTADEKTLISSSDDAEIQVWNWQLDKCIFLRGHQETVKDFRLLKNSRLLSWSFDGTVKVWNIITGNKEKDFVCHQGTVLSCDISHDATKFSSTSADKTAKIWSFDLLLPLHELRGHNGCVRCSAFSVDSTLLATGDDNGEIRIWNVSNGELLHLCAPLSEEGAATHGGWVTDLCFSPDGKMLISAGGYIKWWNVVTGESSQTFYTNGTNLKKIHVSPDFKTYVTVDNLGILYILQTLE
It is filed as functional.

Assay [5] concerns the target T2, Sentrin-specific protease 8 (Homo sapiens, UniProt Q96LD8).
T2 sequence (Q96LD8 whole entry): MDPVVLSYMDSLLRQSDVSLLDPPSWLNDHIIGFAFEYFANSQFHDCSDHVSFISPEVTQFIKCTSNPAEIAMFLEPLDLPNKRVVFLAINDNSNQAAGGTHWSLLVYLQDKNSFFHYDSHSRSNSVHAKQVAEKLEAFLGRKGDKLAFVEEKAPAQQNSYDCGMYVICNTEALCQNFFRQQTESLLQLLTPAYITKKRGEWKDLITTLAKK
It is filed as functional.

Assay [6] concerns the target T3, Protein RecA (Mycobacterium tuberculosis, UniProt P9WHJ3).
T3 sequence (P9WHJ3 whole entry): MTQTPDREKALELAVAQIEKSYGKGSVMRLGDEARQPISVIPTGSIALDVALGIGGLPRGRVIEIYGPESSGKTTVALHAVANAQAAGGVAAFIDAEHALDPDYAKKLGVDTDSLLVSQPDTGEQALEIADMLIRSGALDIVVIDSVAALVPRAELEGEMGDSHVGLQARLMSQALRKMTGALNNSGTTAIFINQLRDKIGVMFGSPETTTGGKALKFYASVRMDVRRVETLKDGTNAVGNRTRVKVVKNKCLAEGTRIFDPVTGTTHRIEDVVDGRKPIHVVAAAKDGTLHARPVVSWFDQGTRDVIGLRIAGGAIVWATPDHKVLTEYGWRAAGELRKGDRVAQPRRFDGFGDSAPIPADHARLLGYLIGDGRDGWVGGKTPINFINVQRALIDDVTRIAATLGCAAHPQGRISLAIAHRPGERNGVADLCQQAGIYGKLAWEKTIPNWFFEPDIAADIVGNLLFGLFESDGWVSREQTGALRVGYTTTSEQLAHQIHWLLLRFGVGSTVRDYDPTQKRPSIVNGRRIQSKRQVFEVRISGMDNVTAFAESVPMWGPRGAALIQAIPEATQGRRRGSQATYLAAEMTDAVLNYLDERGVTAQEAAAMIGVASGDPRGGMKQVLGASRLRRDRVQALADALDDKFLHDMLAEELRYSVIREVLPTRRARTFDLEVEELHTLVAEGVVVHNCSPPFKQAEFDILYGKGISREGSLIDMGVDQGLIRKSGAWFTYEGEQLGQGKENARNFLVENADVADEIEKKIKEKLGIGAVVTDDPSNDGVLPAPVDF
The experiment in a line: Fluorescence Cell-Free Homogeneous Dose Retest to Identify Inhibitors of RecA-Intein Splicing Activity. [Related pubchem assays (depositor defined):AID2097, AID2223, AID489010, AID492950]. It is filed as functional.

In assay [7] the target is T4, Replicative DNA helicase DnaB (Mycobacterium tuberculosis, UniProt P9WMR3).
T4 sequence (P9WMR3 whole entry): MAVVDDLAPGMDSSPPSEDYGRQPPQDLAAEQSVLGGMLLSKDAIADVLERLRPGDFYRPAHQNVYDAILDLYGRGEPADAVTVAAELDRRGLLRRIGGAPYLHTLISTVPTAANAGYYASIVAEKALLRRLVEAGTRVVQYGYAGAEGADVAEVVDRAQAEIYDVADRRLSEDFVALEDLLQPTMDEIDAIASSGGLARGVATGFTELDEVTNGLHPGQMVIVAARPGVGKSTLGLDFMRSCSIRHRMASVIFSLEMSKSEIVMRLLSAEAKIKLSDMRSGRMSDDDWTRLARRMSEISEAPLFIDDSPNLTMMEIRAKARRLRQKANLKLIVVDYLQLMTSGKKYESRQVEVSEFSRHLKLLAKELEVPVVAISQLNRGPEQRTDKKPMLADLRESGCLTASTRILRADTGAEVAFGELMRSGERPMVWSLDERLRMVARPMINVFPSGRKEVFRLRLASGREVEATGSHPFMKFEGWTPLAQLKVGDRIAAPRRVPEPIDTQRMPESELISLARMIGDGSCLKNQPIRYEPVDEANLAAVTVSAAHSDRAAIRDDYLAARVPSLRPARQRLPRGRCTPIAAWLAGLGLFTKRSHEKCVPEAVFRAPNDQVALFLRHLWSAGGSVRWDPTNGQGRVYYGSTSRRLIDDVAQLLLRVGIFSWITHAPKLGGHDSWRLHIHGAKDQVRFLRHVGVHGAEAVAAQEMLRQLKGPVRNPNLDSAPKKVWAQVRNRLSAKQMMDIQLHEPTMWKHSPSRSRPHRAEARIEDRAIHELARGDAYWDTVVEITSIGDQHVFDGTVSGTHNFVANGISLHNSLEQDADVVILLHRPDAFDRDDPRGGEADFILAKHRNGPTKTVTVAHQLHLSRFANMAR
Description: DnaB intein splicing inhibitors, dose response, biochemical, cell-free fluorescence (AID 449749). The format is functional.

The target of assay [8] is T2, Sentrin-specific protease 8. It is filed as functional. The source holds these as a separate data set.
Assay [9] can be described thus: activation of miR-122 Renilla sensor silencing – cell-based, Huh7 psiCHECK-miR122, Renilla luciferase, cherry-picked, dose response (AID 651956).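 Note: huh7 hepatoma cells stably carrying a psiCHECK-2 miR-122 sensor plasmid; renilla luciferase signal reporting endogenous miR-122 activity after 48 h compound exposure.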 It is filed as functional.
Assay [10] deals with T5, Aminopeptidase N (Plasmodium falciparum FcB1/Columbia, UniProt O96935).
T5 sequence (O96935 whole entry): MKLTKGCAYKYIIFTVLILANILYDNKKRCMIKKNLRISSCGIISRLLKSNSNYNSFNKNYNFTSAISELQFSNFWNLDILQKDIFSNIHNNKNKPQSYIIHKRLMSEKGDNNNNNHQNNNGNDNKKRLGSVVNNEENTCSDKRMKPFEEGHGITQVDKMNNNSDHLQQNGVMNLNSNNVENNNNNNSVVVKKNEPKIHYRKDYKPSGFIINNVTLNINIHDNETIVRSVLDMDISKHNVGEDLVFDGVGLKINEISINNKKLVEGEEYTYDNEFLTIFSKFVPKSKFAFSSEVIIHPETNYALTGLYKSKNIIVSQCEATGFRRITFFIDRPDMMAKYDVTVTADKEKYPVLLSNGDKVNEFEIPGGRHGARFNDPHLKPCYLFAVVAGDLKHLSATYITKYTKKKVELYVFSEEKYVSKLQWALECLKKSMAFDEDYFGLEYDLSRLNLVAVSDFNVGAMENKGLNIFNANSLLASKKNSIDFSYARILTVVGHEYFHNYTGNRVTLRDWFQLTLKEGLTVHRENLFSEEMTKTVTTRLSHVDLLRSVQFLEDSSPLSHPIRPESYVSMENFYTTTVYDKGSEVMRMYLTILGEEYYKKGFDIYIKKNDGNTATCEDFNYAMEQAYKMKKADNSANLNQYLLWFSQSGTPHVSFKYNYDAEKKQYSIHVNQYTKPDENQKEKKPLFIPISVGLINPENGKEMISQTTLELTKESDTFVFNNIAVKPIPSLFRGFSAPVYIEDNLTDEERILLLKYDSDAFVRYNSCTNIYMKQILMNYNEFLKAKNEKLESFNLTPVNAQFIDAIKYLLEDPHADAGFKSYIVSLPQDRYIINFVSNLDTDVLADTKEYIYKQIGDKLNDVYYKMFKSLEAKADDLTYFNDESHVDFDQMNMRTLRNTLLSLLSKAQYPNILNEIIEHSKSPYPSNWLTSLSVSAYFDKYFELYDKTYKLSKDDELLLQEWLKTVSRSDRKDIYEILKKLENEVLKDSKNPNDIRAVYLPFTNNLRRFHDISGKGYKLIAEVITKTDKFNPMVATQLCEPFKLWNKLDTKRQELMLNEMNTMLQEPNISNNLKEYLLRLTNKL
Description: malaria alanyl aminopeptidase activity blockers – biochemical, fluorogenic H-Leu-NHMec substrate, 1536-well (AID 1445). Also on record: species or system Plasmodium falciparum 3D7, 3D7.

In assay [11] the target is T6, Corticotropin-releasing factor receptor 2/Corticotropin-releasing factor-binding protein (Homo sapiens, UniProt P24387+Q13324).
T6 sequence (Q13324 whole entry): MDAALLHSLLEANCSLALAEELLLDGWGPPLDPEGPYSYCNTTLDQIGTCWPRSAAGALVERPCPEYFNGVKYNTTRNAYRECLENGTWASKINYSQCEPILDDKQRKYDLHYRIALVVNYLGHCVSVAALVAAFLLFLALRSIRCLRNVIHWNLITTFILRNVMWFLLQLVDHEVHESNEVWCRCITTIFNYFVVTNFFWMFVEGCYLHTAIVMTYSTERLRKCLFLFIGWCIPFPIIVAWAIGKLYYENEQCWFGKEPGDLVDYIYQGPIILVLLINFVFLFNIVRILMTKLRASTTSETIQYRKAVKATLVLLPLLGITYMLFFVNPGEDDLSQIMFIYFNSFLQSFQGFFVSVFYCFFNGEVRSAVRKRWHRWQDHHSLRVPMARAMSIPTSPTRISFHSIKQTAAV
T6 sequence (P24387 whole entry): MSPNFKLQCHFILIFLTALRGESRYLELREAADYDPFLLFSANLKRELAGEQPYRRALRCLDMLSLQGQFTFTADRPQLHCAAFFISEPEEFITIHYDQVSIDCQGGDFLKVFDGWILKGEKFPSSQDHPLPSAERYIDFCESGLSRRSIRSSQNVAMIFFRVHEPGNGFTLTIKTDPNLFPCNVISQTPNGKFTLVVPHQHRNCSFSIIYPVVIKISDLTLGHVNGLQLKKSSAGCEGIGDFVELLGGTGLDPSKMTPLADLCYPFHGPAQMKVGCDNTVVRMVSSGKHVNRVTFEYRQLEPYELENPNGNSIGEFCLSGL
The experiment in a line: Dose Response confirmation of uHTS hits for small molecule antagonists of the CRF-binding protein and CRF-R2 receptor complex. The format is functional. As to conditions: read-out: IC50_Mean.

A short description of assay [12]: blockers of CRF-binding protein–CRF-R2 complex – cell-based, uHTS hits, 384-well, dose response (AID 651639). It is filed as functional, Homo sapiens. As to conditions: read-out: IC50_Mean.
In assay [13] the target is T6, Corticotropin-releasing factor receptor 2/Corticotropin-releasing factor-binding protein. The experiment in a line: activators of CRF receptor 2 with binding protein – uHTS hits, confirmation (AID 602473). The format is functional. The conditions noted are these: read-out: EC50_Mean.

Activity calls are given as the source filed them.

As for `CC(Oc1ccc(Br)cc1)c1nc2c3ccccc3nc(S)n2n1` (stereo unspecified), the AC50 in [1] is 7.23 µM (active). The IC50 in assay [2] is 3.74 µM (active).

For the molecule `Cc1n[nH]c(O)c1C(c1ccc(-c2cccc(Cl)c2)o1)c1c(C)n[nH]c1O`, the IC50 in assay [3] is 56.5 µM (active); in assay [4] it was 17.4 µM (active); in assay [5], 2.19 µM (active); in assay [8], 3.19 µM (active). Moreover, in assay [6], the EC50 is 66.2 µM (active). Also, the AC50 in assay [7] was > 380 µM (inactive).

With `COc1ccc(N2CCN(C(=O)CSc3nnc(CNc4ccccc4)o3)CC2)cc1`, in assay [9], the concentration at half-maximal activity (AC50) was 44.3 µM (active).

Consider `Cc1nn(C)cc1NC(=O)C[C@@H]1CC[C@@H]2[C@@H](COc3ccc(NC(=O)Nc4cccc(Cl)c4)cc3C(=O)N2C)O1`, for which, in assay [9], the concentration at half-maximal activity (AC50) is 22.8 µM (active).

With `O=C(C1CCC(CNS(=O)(=O)c2cccc3nsnc23)CC1)N1CC=C(c2ccccc2)CC1` (stereo unspecified), in [2], the IC50 was 3.8 µM (active).

Regarding `CCOc1ccc(/C=C2\SC(=S)N(NS(=O)(=O)c3ccc(C)cc3)C2=O)cc1OC`, the IC50 in [3] was 58.3 µM (active); in [10], 34.2 µM (active); in [11], 6.18 µM (active); in [12] it was > 20 µM (inactive). The EC50 in [13] is > 53 µM (inactive).
